Test results: US20190086390A1, “INDIRECT ASSESSMENT OF INSULIN RELEASE IN A CELL” (Board of Supervisors of Louisiana State University and …, priority 2016, published 2019)

Tested on: 832/13 and 833/15 cells
Test: Mitochondrial/nuclear DNA ratio analysis
Assay type: cell-based, rat
Conditions: 6 or 18 h
Protocol: Genomic DNA was isolated using a DNeasy kit from Qiagen (Valencia, Calif.) per the manufacturer's protocol and quantified via quantitative PCR using iTaq Universal SYBR Green Supermix (Bio-Rad). Mitochondrial number was determined as the expression of genes encoded by mitochondrial DNA (COI and ATP6) relative to nuclear genes (NDUFA and SDHA) using the AACT method. This methodology has been described previously (24).

In the case of “IL-1β: proinflammatory cytokine purchased from Thermo Fisher Scientific, used at 1 ng/ml”, the “mitochondrial/nuclear DNA ratios” value is reported as “did not detect any alterations”.
